# Tests used:
# Format in all cases: functional
# OVCAR-3 [1] = assay: Growth inhibition of human OVCAR3 cells assessed as cell growth at 100 uM after 48 hrs by SRB assay; details: OVCAR-3, 48 h, read-out: Activity
# SN12C [2] = assay: Growth inhibition of human SN12C cells assessed as cell growth at 10 uM after 48 hrs by SRB assay; details: read-out: Activity
# NCI-H23 [3] = assay: Growth inhibition of human NCI-H23 cells assessed as cell growth at 1 uM after 48 hrs by SRB assay; details: NCI-H23, 48 h, read-out: Activity
# T47D [4] = assay: Growth inhibition of human T47D cells assessed as cell growth at 10 uM after 48 hrs by SRB assay; details: read-out: Activity
# BT-549 [5] = assay: Growth inhibition of human BT549 cells assessed as cell growth at 10 uM after 48 hrs by SRB assay; details: BT-549, 48 h, read-out: Activity
# BT-549 [6] = assay: Growth inhibition of human BT549 cells assessed as cell growth at 1 uM after 48 hrs by SRB assay; details: BT-549, 48 h, read-out: Activity
# OVCAR-5 = assay: Growth inhibition of human OVCAR5 cells assessed as cell growth at 1 mM after 48 hrs by SRB assay; details: OVCAR-5, 48 h, read-out: Activity
# MCF7 [7] = assay: Growth inhibition of human MCF7 cells after 48 hrs by […] growth inhibition assay; details: MCF7, 48 h
# TK-10 [8] = assay: Growth inhibition of human TK10 cells assessed as cell growth at 1 mM after 48 hrs by SRB assay; details: TK-10, 48 h, read-out: Activity
# LOX IMVI [9] = assay: Growth inhibition of human LOXIMVI cells assessed as cell growth at 10 uM after 48 hrs by SRB assay; details: read-out: Activity
# MCF7 [10] = assay: Growth inhibition of human MCF7 cells assessed as cell growth at 100 uM after 48 hrs by SRB assay; details: MCF7, 48 h, read-out: Activity
# NCI-H226 = assay: Growth inhibition of human NCI-H226 cells assessed as cell growth at 1 uM after 48 hrs by SRB assay; details: NCI-H226, 48 h, read-out: Activity
# SF-268 [11] = assay: Growth inhibition of human SF268 cells assessed as cell growth at 0.1 uM after 48 hrs by SRB assay; details: SF-268, 48 h, read-out: Activity
# SK-MEL-28 = assay: Growth inhibition of human SK-MEL-28 cells after 48 hrs by […] growth inhibition assay; details: SK-MEL-28, 48 h
# RXF 393 = assay: Growth inhibition of human RXF393 cells assessed as cell growth at 10 uM after 48 hrs by SRB assay; details: RXF 393, 48 h, read-out: Activity
# LOX IMVI [12] = assay: Growth inhibition of human LOXIMVI cells assessed as cell growth at 1 mM after 48 hrs by SRB assay; details: read-out: Activity
# SF-268 [13] = assay: Growth inhibition of human SF268 cells after 48 hrs by […] growth inhibition assay; details: SF-268, 48 h
# A549 = assay: Growth inhibition of human A549 cells assessed as cell growth at 0.1 uM after 48 hrs by SRB assay; details: A549, 48 h, read-out: Activity
# 786-0 = assay: Growth inhibition of human 786-0 cells assessed as cell growth at 1 uM after 48 hrs by SRB assay; details: 786-0, 48 h, read-out: Activity
# ACHN = assay: Growth inhibition of human ACHN cells assessed as cell growth at 1 mM after 48 hrs by SRB assay; details: read-out: Activity
# HCT-15 = assay: Growth inhibition of human HCT15 cells after 48 hrs by […] growth inhibition assay; details: HCT-15, 48 h
# [14] = Growth inhibition of human Hs 578T cells assessed as cell growth at 10 uM after 48 hrs by SRB assay; details: read-out: Activity
# NCI-H23 [15] = assay: Growth inhibition of human NCI-H23 cells assessed as cell growth at 1 mM after 48 hrs by SRB assay; details: NCI-H23, 48 h, read-out: Activity
# SF-539 [16] = assay: Growth inhibition of human SF539 cells assessed as cell growth at 1 uM after 48 hrs by SRB assay; details: SF-539, 48 h, read-out: Activity
# SR = assay: Growth inhibition of human SR cells assessed as cell growth at 10 uM after 48 hrs by SRB assay; details: read-out: Activity
# HCC 2998 = assay: Growth inhibition of human HCC2998 cells assessed as cell growth at 10 uM after 48 hrs by SRB assay; details: HCC 2998, 48 h, read-out: Activity
# HOP-92 = assay: Growth inhibition of human HOP92 cells assessed as cell growth at 1 uM after 48 hrs by SRB assay; details: HOP-92, 48 h, read-out: Activity
# SN12C [17] = assay: Growth inhibition of human SN12C cells assessed as cell growth at 1 uM after 48 hrs by SRB assay; details: read-out: Activity
# MDA-MB-468 = assay: Growth inhibition of human MDA-MB-468 cells after 48 hrs by […] growth inhibition assay; details: MDA-MB-468, 48 h, read-out: LC50 (the source's name)
# CAKI-1 = assay: Growth inhibition of human Caki1 cells assessed as cell growth at 10 uM after 48 hrs by SRB assay; details: CAKI-1, 48 h, read-out: Activity
# A498 = assay: Growth inhibition of human A498 cells assessed as cell growth at 0.1 uM after 48 hrs by SRB assay; details: A498, 48 h, read-out: Activity
# T47D [18] = assay: Growth inhibition of human T47D cells after 48 hrs by […] growth inhibition assay
# SF-539 [19] = assay: Growth inhibition of human SF539 cells assessed as cell growth at 10 uM after 48 hrs by SRB assay; details: SF-539, 48 h, read-out: Activity
# OVCAR-3 [20] = assay: Growth inhibition of human OVCAR3 cells assessed as cell growth at 10 uM after 48 hrs by SRB assay; details: OVCAR-3, 48 h, read-out: Activity
# TK-10 [21] = assay: Growth inhibition of human TK10 cells assessed as cell growth at 100 uM after 48 hrs by SRB assay; details: TK-10, 48 h, read-out: Activity
# [22] = read-out: LC50 (the source's name)
# [23] = read-out: pLC50 (the source's name) (converted)
compound,measurement,setting,value
CNC(=O)NC[C@H]1O[C@@H](n2cnc3c(NC(=O)Nc4ccccc4)ncnc32)[C@H](O[Si](C)(C)C(C)(C)C)[C@@H]1CC(=O)N(C)OC,growth at 100 µM,OVCAR-3 [1],41%
same,growth at 10 µM,SN12C [2],96%
same,growth at 1 µM,NCI-H23 [3],103%
same,growth at 10 µM,T47D [4],84%
same,growth at 10 µM,BT-549 [5],96%
same,growth at 1 µM,BT-549 [6],98%
same,growth at 1000 µM,OVCAR-5,35%
same,GI50,MCF7 [7]; read-out: GI50,5.59 µM
same,CC50,MCF7 [7]; [22],> 100 µM
same,TGI,MCF7 [7]; read-out: TGI,> 100 µM
same,GI50,MCF7 [7]; read-out: pGI50 (converted),5.62 µM
same,CC50,MCF7 [7]; [23],> 100 µM
same,TGI,MCF7 [7]; read-out: pTGI (converted),> 100 µM
same,growth at 1000 µM,TK-10 [8],17%
same,growth at 10 µM,LOX IMVI [9],94%
same,growth at 100 µM,MCF7 [10],34%
same,growth at 1 µM,NCI-H226,111%
same,growth at 0.1 µM,SF-268 [11],98%
same,GI50,SK-MEL-28; read-out: GI50,7.77 µM
same,CC50,SK-MEL-28; [22],> 100 µM
same,TGI,SK-MEL-28; read-out: TGI,> 100 µM
same,GI50,SK-MEL-28; read-out: pGI50 (converted),7.76 µM
same,CC50,SK-MEL-28; [23],> 100 µM
same,TGI,SK-MEL-28; read-out: pTGI (converted),> 100 µM
same,growth at 10 µM,RXF 393,98%
same,growth at 1000 µM,LOX IMVI [12],35%
same,GI50,SF-268 [13]; read-out: GI50,8.29 µM
same,CC50,SF-268 [13]; [22],> 100 µM
same,TGI,SF-268 [13]; read-out: TGI,> 100 µM
same,GI50,SF-268 [13]; read-out: pGI50 (converted),8.32 µM
same,CC50,SF-268 [13]; [23],> 100 µM
same,TGI,SF-268 [13]; read-out: pTGI (converted),> 100 µM
same,growth at 0.1 µM,A549,97%
same,growth at 1 µM,786-0,92%
same,growth at 1000 µM,ACHN,23%
same,GI50,HCT-15; read-out: GI50,6.47 µM
same,CC50,HCT-15; [22],> 100 µM
same,TGI,HCT-15; read-out: TGI,> 100 µM
same,GI50,HCT-15; read-out: pGI50 (converted),6.46 µM
same,CC50,HCT-15; [23],> 100 µM
same,TGI,HCT-15; read-out: pTGI,> 100 µM
same,growth at 10 µM,[14],82%
same,growth at 1000 µM,NCI-H23 [15],43%
same,growth at 1 µM,SF-539 [16],94%
same,growth at 10 µM,SR,62%
same,growth at 10 µM,HCC 2998,100%
same,growth at 1 µM,HOP-92,93%
same,growth at 1 µM,SN12C [17],104%
same,CC50,MDA-MB-468,> 100 µM
same,growth at 10 µM,CAKI-1,76%
same,growth at 0.1 µM,A498,90%
same,GI50,T47D [18]; read-out: GI50,13.9 µM
same,CC50,T47D [18]; [22],> 100 µM
same,TGI,T47D [18]; read-out: TGI,> 100 µM
same,GI50,T47D [18]; read-out: pGI50 (converted),13.8 µM
same,CC50,T47D [18]; [23],> 100 µM
same,TGI,T47D [18]; read-out: pTGI (converted),> 100 µM
same,growth at 10 µM,SF-539 [19],89%
same,growth at 10 µM,OVCAR-3 [20],100%
same,growth at 100 µM,TK-10 [21],65%

# From ChEMBL document CHEMBL1681651, “A broad spectrum anticancer nucleoside with selective toxicity against human colon cells in vitro” (2011)
